Values of other authors in PubChem BioAssay AID1259409 (Chemical Carcinogenesis Research Information System (CCRIS), 2018).

Test system: rodent chemically induced tumor inhibition, incidence and multiplicity
Test: CCRIS tumor inhibitor studies
Details: Promoter: NONE USED

SMILES: O
- tumour outcome (control, treated, inhibition, significance) (Carcinogen: 1,2-DIMETHYLHYDRAZINE, 540-73-8, Dose [Inhibitor]: 0, 250 PPM IN DIET BEGINNING POST CARCINOGEN TREATMENT AND CONTINUING FOR DURATION OF STUDY (STUDY DURATION: 365 D), Route [Inhibitor]: ORAL, Species: RAT, Strain/Sex: F344/MALE, Target Tissue: Type of Lesion: LARGE INTESTINE: ADENOMA OR ADENOCARCINOMA, Dose [Carcinogen]: 20 MG/KG BW 10 TIMES): 14/30 (47%), 11/32 (34%), 28%, not significant
- tumour outcome (control, treated, inhibition, significance) (Carcinogen: 1,2-DIMETHYLHYDRAZINE, 540-73-8, Dose [Inhibitor]: 0, 250 PPM IN DIET BEGINNING POST CARCINOGEN TREATMENT AND CONTINUING FOR DURATION OF STUDY (STUDY DURATION: 365 D), Route [Inhibitor]: ORAL, Species: RAT, Strain/Sex: F344/MALE, Target Tissue: Type of Lesion: SMALL INTESTINE: ADENOCARCINOMA, Dose [Carcinogen]: 20 MG/KG BW 10 TIMES): 6/30 (20%), 5/32 (16%), 20%, not significant
- tumour outcome (control, treated, inhibition, significance) (Carcinogen: 1,2-DIMETHYLHYDRAZINE, 540-73-8, Dose [Inhibitor]: 0, 500 PPM IN DIET BEGINNING POST CARCINOGEN TREATMENT AND CONTINUING FOR DURATION OF STUDY (STUDY DURATION: 365 D), Route [Inhibitor]: ORAL, Species: RAT, Strain/Sex: F344/MALE, Target Tissue: Type of Lesion: LARGE INTESTINE: ADENOMA OR ADENOCARCINOMA, Dose [Carcinogen]: 20 MG/KG BW 10 TIMES): 14/30 (47%), 16/32 (50%), -6%, not significant
- tumour outcome (control, treated, inhibition, significance) (Carcinogen: 1,2-DIMETHYLHYDRAZINE, 540-73-8, Dose [Inhibitor]: 0, 500 PPM IN DIET BEGINNING POST CARCINOGEN TREATMENT AND CONTINUING FOR DURATION OF STUDY (STUDY DURATION: 365 D), Route [Inhibitor]: ORAL, Species: RAT, Strain/Sex: F344/MALE, Target Tissue: Type of Lesion: SMALL INTESTINE: ADENOMA, Dose [Carcinogen]: 20 MG/KG BW 10 TIMES): 6/30 (20%), 3/32 (9%), 55%, not significant
- tumour outcome (control, treated, inhibition, significance) (Carcinogen: 1,2-DIMETHYLHYDRAZINE, 540-73-8, Dose [Inhibitor]: 0, 1000 PPM IN DIET BEGINNING POST CARCINOGEN TREATMENT AND CONTINUING FOR DURATION OF STUDY (STUDY DURATION: 365 D), Route [Inhibitor]: ORAL, Species: RAT, Strain/Sex: F344/MALE, Target Tissue: Type of Lesion: LARGE INTESTINE: ADENOMA OR ADENOCARCINOMA, Dose [Carcinogen]: 20 MG/KG BW 10 TIMES): 14/30 (47%), 11/32 (34%), 28%, not significant
- tumour outcome (control, treated, inhibition, significance) (Carcinogen: 1,2-DIMETHYLHYDRAZINE, 540-73-8, Dose [Inhibitor]: 0, 1000 PPM IN DIET BEGINNING POST CARCINOGEN TREATMENT AND CONTINUING FOR DURATION OF STUDY (STUDY DURATION: 365 D), Route [Inhibitor]: ORAL, Species: RAT, Strain/Sex: F344/MALE, Target Tissue: Type of Lesion: SMALL INTESTINE: ADENOCARCINOMA, Dose [Carcinogen]: 20 MG/KG BW 10 TIMES): 6/30 (20%), 6/32 (19%), 5%, not significant
- tumour outcome (control, treated, inhibition, significance) (Carcinogen: 1,2-DIMETHYLHYDRAZINE, 540-73-8, Dose [Inhibitor]: 0, 2000 PPM IN DIET BEGINNING POST CARCINOGEN TREATMENT AND CONTINUING FOR DURATION OF STUDY (STUDY DURATION: 365 D), Route [Inhibitor]: ORAL, Species: RAT, Strain/Sex: F344/MALE, Target Tissue: Type of Lesion: LARGE INTESTINE: ADENOCARCINOMA, Dose [Carcinogen]: 20 MG/KG BW 10 TIMES): 11/30 (37%), 11/31 (35%), 5%, not significant
- tumour outcome (control, treated, inhibition, significance) (Carcinogen: 1,2-DIMETHYLHYDRAZINE, 540-73-8, Dose [Inhibitor]: 0, 2000 PPM IN DIET BEGINNING POST CARCINOGEN TREATMENT AND CONTINUING FOR DURATION OF STUDY (STUDY DURATION: 365 D), Route [Inhibitor]: ORAL, Species: RAT, Strain/Sex: F344/MALE, Target Tissue: Type of Lesion: SMALL INTESTINE: ADENOCARCINOMA, Dose [Carcinogen]: 20 MG/KG BW 10 TIMES): 6/30 (20%), 10/31 (32%), -60%, not significant
- tumour outcome (control, treated, inhibition, significance) (Carcinogen: METHYLAZOXYMETHANOL ACETATE, 592-62-1, Dose [Inhibitor]: 0, 500 PPM IN DIET BEGINNING 2 WK POST CARCINOGEN TREATMENT AND CONTINUING FOR DURATION OF STUDY (STUDY DURATION: 255 D), Route [Inhibitor]: ORAL, Species: RAT, Strain/Sex: F344/MALE, Target Tissue: Type of Lesion: LARGE INTESTINE: ADENOMA OR ADENOCARCINOMA, Dose [Carcinogen]: 25 MG/KG BW 1/WK FOR 3 WK): 17/32 (53%), 3/30 (10%), 81%, p<0.0002
- tumour outcome (control, treated, inhibition, significance) (Carcinogen: METHYLAZOXYMETHANOL ACETATE, 592-62-1, Dose [Inhibitor]: 0, 500 PPM IN DIET BEGINNING 2 WK POST CARCINOGEN TREATMENT AND CONTINUING FOR DURATION OF STUDY (STUDY DURATION: 255 D), Route [Inhibitor]: ORAL, Species: RAT, Strain/Sex: F344/MALE, Target Tissue: Type of Lesion: SMALL INTESTINE: ADENOCARCINOMA, Dose [Carcinogen]: 25 MG/KG BW 1/WK FOR 3 WK): 2/32 (6%), 2/30 (7%), -17%, not significant
- tumour outcome (control, treated, inhibition, significance) (Carcinogen: METHYLAZOXYMETHANOL ACETATE, 592-62-1, Dose [Inhibitor]: 0, 1000 PPM IN DIET BEGINNING 2 WK POST CARCINOGEN TREATMENT AND CONTINUING FOR DURATION OF STUDY (STUDY DURATION: 255 D, Route [Inhibitor]: ORAL, Species: RAT, Strain/Sex: F344/MALE, Target Tissue: Type of Lesion: LARGE INTESTINE: ADENOMA OR ADENOCARCINOMA, Dose [Carcinogen]: 25 MG/KG BW 1/WK FOR 3 WK): 17/32 (53%), 9/30 (30%), 43%, not significant
- tumour outcome (control, treated, inhibition, significance) (Carcinogen: METHYLAZOXYMETHANOL ACETATE, 592-62-1, Dose [Inhibitor]: 0, 1000 PPM IN DIET BEGINNING 2 WK POST CARCINOGEN TREATMENT AND CONTINUING FOR DURATION OF STUDY (STUDY DURATION: 255 D, Route [Inhibitor]: ORAL, Species: RAT, Strain/Sex: F344/MALE, Target Tissue: Type of Lesion: SMALL INTESTINE: ADENOCARCINOMA, Dose [Carcinogen]: 25 MG/KG BW 1/WK FOR 3 WK): 2/32 (6%), 2/30 (7%), -17%, not significant
- tumour outcome (control, treated, inhibition, significance) (Carcinogen: METHYLAZOXYMETHANOL ACETATE, 592-62-1, Dose [Inhibitor]: 500 PPM IN DIET BEGINNING 2 WK POST LAST CARCINOGEN DOSE AND CONTINUING FOR 227 D (STUDY DURATION: 255 D), Route [Inhibitor]: ORAL, Species: RAT, Strain/Sex: F344/MALE, Target Tissue: Type of Lesion: LARGE INTESTINE: ADENOMA OR ADENOCARCINOMA, Dose [Carcinogen]: 25 MG/KG 1/WK FOR 3 WK): 17/32 (53%), 3/30 (10%), 81%, p<0.0002
- tumour outcome (control, treated, inhibition, significance) (Carcinogen: METHYLAZOXYMETHANOL ACETATE, 592-62-1, Dose [Inhibitor]: 1000 PPM IN DIET BEGINNING 2 WK POST LAST CARCINOGEN DOSE AND CONTINUING FOR 227 D (STUDY DURATION: 255 D), Route [Inhibitor]: ORAL, Species: RAT, Strain/Sex: F344/MALE, Target Tissue: Type of Lesion: LARGE INTESTINE: ADENOMA OR ADENOCARCINOMA, Dose [Carcinogen]: 25 MG/KG 1/WK FOR 3 WK): 17/32 (53%), 9/30 (30%), 43%, not calculated

SMILES: CN(C)CCOc1ccc([C@H]2C[C@]3(C)[C@@H](O)CC[C@H]3[C@@H]3CCc4cc(O)ccc4[C@H]32)cc1
- tumour outcome (control, treated, inhibition, significance) (Carcinogen: ESTRADIOL, 50-28-2, Dose [Inhibitor]: 0, 25 MG/PELLET 2 PELLETS IMPLANTED EVERY 3 MO BEGINNING 15 D PRIOR TO CARCINOGEN DOSE (STUDY DURATION: 8 MO), Route [Inhibitor]: SUBCUTANEOUS IMPLANT, Species: HAMSTER, Strain/Sex: SYRIAN/MALE, Target Tissue: Type of Lesion: KIDNEY: TUMOR, Dose [Carcinogen]: 25 MG PELLET IMPLANTED EVERY 3 MO): 5/5 (100%), 7/8 (88%), 12%, not significant
